Tests used:
[1] = trial patients; after ingestion of hydroxycarbamide vs after sodium nitrite application
Description: Plasma and whole blood nitrite and nitrate concentrations were collected at the following time points: pre-dose; immediately after application; 5, 10, 15, 20, 30, 45, 60, and 90 min post-dose; 2, 3, 6, 8, 12, 24, and 48 h post-dose; then weekly and at the end of the study. All processing was done at the bedside. Plasma and whole blood nitrite and nitrate were measured with a gas-phase chemiluminescence nitric oxide analyzer, as previously reported (Gladwin et al., Proc Natl Acad Sci USA.; 97: 11482-11487, 2000).
Therefore, we did a subsequent pharmacokinetic analysis was carried out with respect to the time and dose of hydroxycarbamide intake instead of nitrite cream administration, using a population approach. A two-compartment model was fitted with first-order absorption and elimination to whole blood nitrite concentrations using first-order conditional estimation method by Phoenix NLME 1.2 (Certara USA Inc., St Louis, Mo., USA), and an exponential model was used to describe the inter-individual variability and a mixed-ratio model to describe the intra-individual variability (FIG. 7C).

[2] = tested on: chronic leg ulcers in patients with sickle cell anaemia; conditions: concomitant use in 9 of 18 trial patients; p=0.96
Description: The primary endpoints were safety and tolerability, with secondary endpoints of pharmacokinetics, blood flow, and wound healing. Pain relief was analysed post hoc. Endpoints were analysed over time for the whole study population and according to dose level.
Hydroxycarbamide and chronic transfusions were allowed. Patients with acute infections were excluded.
Originally, it was planned to enroll four cohorts with three patients in each, to give a total of 12 participants. […] The first two doses of cream were administered as inpatients, and the remaining six doses in the outpatient day hospital at the NIH Clinical Center. […] All three patients in each cohort were assessed for the 32-day duration of the study to ensure no dose-limiting toxicities before patients were enrolled into the next cohort. […]
The study ulcer was selected by the wound care nurse and principal investigator on the basis of ulcer duration, size, and accessibility for digital imaging. […] Ulcers were measured manually with a disposable ruler (longest length and widest width) at each encounter and by digital photography three times: before the first application of cream (baseline), and after 2 weeks and after 4 weeks of treatment. […] The ulcer area was calculated by converting the number of pixels representing the ulcer to cm^2 using a calibrated square (35.48 mm×35.62 mm×6.52 mm) that was placed near the ulcer for reference. […]

[3] = tested on: sickle cell disease leg ulcers; conditions: published randomised trials; RGD peptide topical, arginine butyrate intravenous; cited from earlier work

| Compound | Whole blood nitrite concentrations [1] | Association with ulcer healing [2] | Wound closure [3] |
| --- | --- | --- | --- |
| NC(=O)NO [hydroxycarbamide] | increased | not associated with ulcer healing |  |
| arginine butyrate |  |  | statistically significant increases in wound closure |
| Arg-Gly-Asp (RGD) peptide |  |  | statistically significant increases in wound closure |

— patent publication US10272039B2 (The United States of America, as represented by the …, priority 2014, dated 2019)
